Laboratory results taken from patent publication US12534469B2 (CHILDREN'S HOSPITAL MEDICAL CENTER, priority 2020, dated 2026).

What was measured:
FLT3 D835Y = molecular target: T1, FLT3 D835Y (Homo sapiens, UniProt P36888, D835Y); assay: DiscoverX KINOMEscan competition binding assay, FLT3 D835Y
T1 construct: purchased DiscoverX (KINOMEscan); host or cells: E. coli (T7 phage) or HEK-293
T1 sequence (P36888 27-993 D835Y): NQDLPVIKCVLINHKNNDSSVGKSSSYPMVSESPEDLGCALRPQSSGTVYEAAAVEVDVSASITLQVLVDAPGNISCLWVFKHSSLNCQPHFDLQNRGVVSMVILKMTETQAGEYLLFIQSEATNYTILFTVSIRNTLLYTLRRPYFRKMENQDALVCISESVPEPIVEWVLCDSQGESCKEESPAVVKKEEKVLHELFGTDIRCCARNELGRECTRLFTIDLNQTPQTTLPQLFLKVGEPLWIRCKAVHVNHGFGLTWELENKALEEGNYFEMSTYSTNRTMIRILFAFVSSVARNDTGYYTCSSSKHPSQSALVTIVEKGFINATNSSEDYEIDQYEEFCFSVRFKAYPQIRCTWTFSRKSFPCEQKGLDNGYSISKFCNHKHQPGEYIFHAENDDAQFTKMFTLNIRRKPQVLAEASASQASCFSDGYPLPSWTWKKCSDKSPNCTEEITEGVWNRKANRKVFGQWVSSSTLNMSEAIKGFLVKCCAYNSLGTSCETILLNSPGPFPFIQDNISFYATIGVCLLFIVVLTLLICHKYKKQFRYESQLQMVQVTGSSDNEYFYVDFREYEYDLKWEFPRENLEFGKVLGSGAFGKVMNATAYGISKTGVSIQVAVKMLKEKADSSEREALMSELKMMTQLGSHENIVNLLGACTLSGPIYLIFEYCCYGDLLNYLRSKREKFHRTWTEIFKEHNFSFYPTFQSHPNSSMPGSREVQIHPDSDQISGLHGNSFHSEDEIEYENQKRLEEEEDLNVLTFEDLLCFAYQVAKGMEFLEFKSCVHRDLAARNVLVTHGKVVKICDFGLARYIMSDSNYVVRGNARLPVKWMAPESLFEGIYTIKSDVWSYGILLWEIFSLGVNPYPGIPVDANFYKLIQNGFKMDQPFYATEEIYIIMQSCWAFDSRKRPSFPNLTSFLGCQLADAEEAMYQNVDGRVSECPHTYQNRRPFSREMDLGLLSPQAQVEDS
Source text: (§1) Kinase binding data were obtained for various exemplary compounds prepared according to Examples 1-25 using the DiscoverX KINOMEscan® active site-directed competition binding site-directed assay protocol described below. […] As a result, the data report thermodynamic interaction affinities (Kd values), rather than IC50 values that are dependent on ATP concentrations. The assay uses a DNA-tagged version of the protein kinase, and an immobilized ligand bound to a solid support. Compounds that directly or indirectly prevent kinase binding to the immobilized ligand reduce the amount of kinase captured on the solid support, which is detected using an ultra-sensitive qPCR method. Affinity constants reported from the assay have been reported to be independent of the immobilized ligand used that is coupled to the solid support (See supplemental information in Fabian, M. A. et. al., (2005) Nat. Biotechnol. 23, 329-336; Wodicka, L. M. et. al., (2010) Chem. Biol. 17, 1241-1249.)
(§2) Kinase-tagged T7 phage strains were prepared in an E. coli host derived from the BL21 strain. E. coli were grown to log-phase and infected with T7 phage and incubated with shaking at 32° C. until lysis. The lysates were centrifuged and filtered to remove cell debris. The remaining kinases were produced in HEK-293 cells and subsequently tagged with DNA for qPCR detection. […] The liganded beads were blocked with excess biotin and washed with blocking buffer (SeaBlock (Pierce), 1% BSA, 0.05% Tween 20, 1 mM DTT) to remove unbound ligand and to reduce non-specific binding. […] Test compounds were prepared as 111× stocks in 100% DMSO. Kds were determined using an 11-point 3-fold compound dilution series with three DMSO control points. […] The compounds were then diluted directly into the assays such that the final concentration of DMSO was 0.9%. All reactions were performed in polypropylene 384-well plates. Each was a final volume of 0.02 mL. […] The kinase concentration in the eluates was measured by qPCR.
(§3) Binding constants (Kds) were calculated with a standard dose-response curve using the Hill equation. […]

FLT3 Autoinh. = molecular target: T2, FLT3 Autoinh. (Homo sapiens, UniProt P36888); assay: DiscoverX KINOMEscan competition binding assay, FLT3 Autoinh.
T2 construct: purchased DiscoverX (KINOMEscan); host or cells: E. coli (T7 phage) or HEK-293
T2 sequence (P36888 564-993 limits assumed): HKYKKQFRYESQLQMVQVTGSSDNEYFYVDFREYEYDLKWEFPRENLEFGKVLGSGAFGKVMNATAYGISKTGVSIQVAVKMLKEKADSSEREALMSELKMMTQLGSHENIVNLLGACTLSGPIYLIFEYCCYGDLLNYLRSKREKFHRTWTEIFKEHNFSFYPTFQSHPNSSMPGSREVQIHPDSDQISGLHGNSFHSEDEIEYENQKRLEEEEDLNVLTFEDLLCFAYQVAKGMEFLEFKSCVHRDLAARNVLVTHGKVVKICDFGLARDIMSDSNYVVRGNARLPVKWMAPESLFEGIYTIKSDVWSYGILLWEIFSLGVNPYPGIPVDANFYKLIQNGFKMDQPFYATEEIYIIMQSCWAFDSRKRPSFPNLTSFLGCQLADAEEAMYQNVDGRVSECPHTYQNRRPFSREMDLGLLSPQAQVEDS
Source text: as §1, §2, §3

| Kd (FLT3 D835Y) [nM] | Kd (FLT3 Autoinh.) [nM] | SMILES |
| --- | --- | --- |
| 0.46 | 11 | COc1cc2ncc(-c3cccc(N[C@H]4CNC[C@@H]4F)n3)n2nc1C1CC1 [Compound 96, 6-(6-cyclopropyl-7-methoxyimidazo[1,2-b]pyridazin-3-yl)-N-((3S,4S)-4-fluoropyrrolidin-3-yl)pyridin-2-amine] |
| 0.063 | 13 | COc1cc2ncc(-c3cccc(N[C@@H]4CCNC4)n3)n2nc1C1CC1 [Compound 97, (R)-6-(6-cyclopropyl-7-methoxyimidazo[1,2-b]pyridazin-3-yl)-N-(pyrrolidin-3-yl)pyridin-2-amine] |
| 0.16 | 17 | COc1cc2ncc(-c3cccc(N[C@H]4CNCC[C@@H]4F)n3)n2nc1C1CC1 [Compound 102, 6-(6-cyclopropyl-7-methoxyimidazo[1,2-b]pyridazin-3-yl)-N-((3S,4S)-4-fluoropiperidin-3-yl)pyridin-2-amine] |
